# Experiments:
# [1] = system: Golden Delicious variety of apples; test: Fruit thinning field trial, first and optional second application of metamitron; format: in vivo; conditions: for Thinning Effect (%): vs untreated control
# Experimental: A formulation of metamitron in the form of a soluble granule was diluted to the desired concentration with water. The following concentrations were prepared: • 1.1 Kg/ha metamitron (low dosage) • 1.65 Kg/ha metamitron (medium dosage) • 2.2 Kg/ha metamitron (high dosage) The experiments were conducted on the Golden Delicious variety of apples in Germany and Italy. The first application of metamitron was applied to the fruit trees in May when the fruit was at fruiting stage BBCH69-BBCH72. The second application of metamitron was applied, if applicable, five days after the first application. Local meteorological data was obtained from local weather stations. The meteorological data was inputted into the MaluSim Carbon Balance Model of Lakso (described at […].cornell.edu/apple_thin_help.html, the contents of which are hereby incorporated by reference) in order to obtain the level of carbohydrates available in the fruit tree. The thinning effect is calculated by comparing the treated fruit trees with the untreated control as follows: […]
# [2] = system: Golden Delicious variety of apples; test: Photosynthetic activity levels of the fruit bearing tree after the first application; format: in vivo
# Experimental: The experiments were conducted on the Golden Delicious variety of apples in Germany and Italy. The first application of metamitron was applied to the fruit trees in May when the fruit was at fruiting stage BBCH69-BBCH72. The second application of metamitron was applied, if applicable, five days after the first application. […] Based on this and on the predicted meteorological data for the time of the second application, the second application should be applied at a high dose in order to effectively thin the fruit bearing tree. […] No over-thinning was observed.
# [3] = Germany, 1st application 1.65 Kg/ha, 2nd application 0 Kg/ha
# [4] = Germany, 1st application 1.65 Kg/ha, 2nd application 1.1 Kg/ha
# [5] = Germany, 1st application 1.65 Kg/ha, 2nd application 2.2 Kg/ha
# [6] = Germany, 1st application 2.2 Kg/ha, 2nd application 0 Kg/ha
# [7] = Germany, 1st application 2.2 Kg/ha, 2nd application 1.1 Kg/ha
# [8] = Germany, 1st application 2.2 Kg/ha, 2nd application 1.65 Kg/ha
# [9] = Germany, 1st application 2.2 Kg/ha, 2nd application 2.2 Kg/ha
# [10] = Italy, 1st application 1.65 Kg/ha, 2nd application 0 Kg/ha
# [11] = Italy, 1st application 1.65 Kg/ha, 2nd application 1.1 Kg/ha
# [12] = Italy, 1st application 1.65 Kg/ha, 2nd application 2.2 Kg/ha
# [13] = Italy, 1st application 2.2 Kg/ha, 2nd application 0 Kg/ha
# [14] = Italy, 1st application 2.2 Kg/ha, 2nd application 2.2 Kg/ha
compound,measurement,setting,value
Cc1nnc(-c2ccccc2)c(=O)n1N [metamitron],Fruit Load (fruits/tcsa),[1]; [3],11.20 fruits/tcsa
same,Thinning Effect (%),[1]; [3],33.2%
same,Fruit Load (fruits/tcsa),[1]; [4],11.42 fruits/tcsa
same,Thinning Effect (%),[1]; [4],31.8%
same,Fruit Load (fruits/tcsa),[1]; [5],6.83 fruits/tcsa
same,Thinning Effect (%),[1]; [5],59.3%
same,Fruit Load (fruits/tcsa),[1]; [6],11.44 fruits/tcsa
same,Thinning Effect (%),[1]; [6],31.8%
same,Fruit Load (fruits/tcsa),[1]; [7],11.40 fruits/tcsa
same,Thinning Effect (%),[1]; [7],32.0%
same,Fruit Load (fruits/tcsa),[1]; [8],11.98 fruits/tcsa
same,Thinning Effect (%),[1]; [8],28.5%
same,Fruit Load (fruits/tcsa),[1]; [9],8.07 fruits/tcsa
same,Thinning Effect (%),[1]; [9],51.8%
same,Fruit Load (fruits/tcsa),[1]; [10],12.33 fruits/tcsa
same,Thinning Effect (%),[1]; [10],31.27%
same,Fruit Load (fruits/tcsa),[1]; [11],12.30 fruits/tcsa
same,Thinning Effect (%),[1]; [11],31.39%
same,Fruit Load (fruits/tcsa),[1]; [12],9.58 fruits/tcsa
same,Thinning Effect (%),[1]; [12],46.57%
same,Fruit Load (fruits/tcsa),[1]; [13],12.67 fruits/tcsa
same,Thinning Effect (%),[1]; [13],29.38%
same,Fruit Load (fruits/tcsa),[1]; [14],9.37 fruits/tcsa
same,Thinning Effect (%),[1]; [14],47.75%
same,Photosynthetic Activity levels,"[2]; Germany, after 1st application 1.65 Kg/ha",Low
same,Photosynthetic Activity levels,"[2]; Germany, after 1st application 2.2 Kg/ha",Low
same,Photosynthetic Activity levels,"[2]; Italy, after 1st application 1.65 Kg/ha",Low
same,Photosynthetic Activity levels,"[2]; Italy, after 1st application 2.2 Kg/ha",Low

# From patent US20190313644A1, “METHOD FOR FRUIT THINNING” (Adama Agan Ltd., priority 2015, published 2019)
